Values belong to the compound of their own block, whether it stands above or below them. Activity calls are given as the source filed them.
Columns and labels:
[1] = blockers of HIV-1 ZM109 envelope-driven cell-cell fusion – HeLa effector, CEM target cells, luciferase, cherry-pick, dose response (AID 652058); assay type: functional, cell-based;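 also: luciferase signal from HIV-1 Env mediated cell-cell fusion of effector and target cells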
[2] = off-target signal loss in HeLa-CEM21 co-culture – HeLa F-luc CTL cells, cherry-picked, counter-screen for HIV-1 Env fusion inhibitor project, dose response (AID 652040); assay type: functional, cell-based;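 also: potency for signal decrease marking cytotoxic or nonspecific inhibition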
Cytochrome P450 2D6 = Cytochrome P450 2D6 (Homo sapiens, UniProt P10635);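 also: CYP2D6 member of a cytochrome P450 panel assay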
Chain of Cytochrome P450 2D6 (P10635 whole entry, the tested form may be a part): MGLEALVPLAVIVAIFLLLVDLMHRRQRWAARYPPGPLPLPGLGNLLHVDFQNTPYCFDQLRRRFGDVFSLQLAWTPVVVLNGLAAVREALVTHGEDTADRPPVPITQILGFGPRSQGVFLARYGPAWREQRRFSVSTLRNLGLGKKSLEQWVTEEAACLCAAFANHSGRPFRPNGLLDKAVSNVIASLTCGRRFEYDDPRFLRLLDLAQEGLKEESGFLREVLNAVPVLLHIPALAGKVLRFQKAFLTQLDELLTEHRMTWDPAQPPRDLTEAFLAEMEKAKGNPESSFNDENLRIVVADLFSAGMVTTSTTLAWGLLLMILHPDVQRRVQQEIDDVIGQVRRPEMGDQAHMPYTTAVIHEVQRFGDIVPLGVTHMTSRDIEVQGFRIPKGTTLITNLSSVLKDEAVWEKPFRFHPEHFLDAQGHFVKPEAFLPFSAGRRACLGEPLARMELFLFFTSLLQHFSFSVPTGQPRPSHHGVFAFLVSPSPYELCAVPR

[3] = HIV-1 AD8 envelope cell-cell fusion blockers – cherry-pick, dose response (AID 652062); assay type: functional, cell-based;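 also: luciferase signal from cell-cell fusion driven by HIV-1 clade B AD8 Env; potency is for inhibitors of fusion seen as a drop in luminescence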
[4] = blockers of HIV-1 envelope-mediated cell-cell fusion – cherry-pick, dose response (AID 652057); assay type: functional, cell-based
[5] = viability loss in CEM21 cells – cell-based, CellTiter-Glo luminescence, cherry-picked, cytotoxicity control for viral fusion inhibitor project, dose response (AID 652042); assay type: functional;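 also: potency for signal decrease meaning cytotoxicity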
Cytochrome P450 1A2 = molecular target: T1, Cytochrome P450 1A2 (Homo sapiens, UniProt P05177);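 also: PubChem cytochrome P450 panel assay, CYP1A2 panel member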
T1 sequence (P05177 whole entry): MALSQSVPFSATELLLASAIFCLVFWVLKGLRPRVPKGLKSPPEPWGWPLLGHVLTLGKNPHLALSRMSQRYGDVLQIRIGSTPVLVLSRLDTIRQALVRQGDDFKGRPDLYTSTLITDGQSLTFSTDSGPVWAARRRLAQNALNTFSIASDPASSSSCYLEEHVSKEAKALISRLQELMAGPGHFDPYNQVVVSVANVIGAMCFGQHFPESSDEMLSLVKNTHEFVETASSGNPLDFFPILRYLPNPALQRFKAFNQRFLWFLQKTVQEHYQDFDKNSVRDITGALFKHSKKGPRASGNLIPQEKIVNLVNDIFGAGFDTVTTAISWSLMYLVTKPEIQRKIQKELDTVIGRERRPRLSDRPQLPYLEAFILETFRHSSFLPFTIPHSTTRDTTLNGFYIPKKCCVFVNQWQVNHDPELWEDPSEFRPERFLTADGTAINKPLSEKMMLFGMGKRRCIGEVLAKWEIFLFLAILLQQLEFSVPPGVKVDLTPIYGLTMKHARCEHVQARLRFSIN

HeLa = test: ATP-based viability loss in HeLa cells – cell-based, CellTiter-Glo luminescence, cherry-pick samples, cytotoxicity control for MITF activator project, dose response (AID 540259); assay type: functional; conditions: Homo sapiens
[6] = molecular target: DNA dC->dU-editing enzyme APOBEC-3A (Homo sapiens, UniProt P31941); test: Dose Response confirmation of small molecule APOBEC3A DNA Deaminase Inhibitors via a fluorescence-based single-stranded DNA deaminase assay. [Related pubchem assays (depositor defined):AID493011, AID493024]; assay type: functional
Chain of DNA dC->dU-editing enzyme APOBEC-3A (P31941 whole entry): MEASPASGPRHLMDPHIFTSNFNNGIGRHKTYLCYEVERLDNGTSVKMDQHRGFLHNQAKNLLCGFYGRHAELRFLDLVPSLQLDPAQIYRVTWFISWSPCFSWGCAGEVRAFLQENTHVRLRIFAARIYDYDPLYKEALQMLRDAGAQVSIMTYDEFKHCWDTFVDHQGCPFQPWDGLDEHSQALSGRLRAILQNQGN

[7] = molecular target: DNA dC->dU-editing enzyme APOBEC-3G (Homo sapiens, UniProt Q9HC16); assay type: functional;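 also: Dose-response counterscreen measuring inhibition of APOBEC3G DNA deaminase activity, run while confirming APOBEC3A inhibitors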
Chain of DNA dC->dU-editing enzyme APOBEC-3G (Q9HC16 whole entry): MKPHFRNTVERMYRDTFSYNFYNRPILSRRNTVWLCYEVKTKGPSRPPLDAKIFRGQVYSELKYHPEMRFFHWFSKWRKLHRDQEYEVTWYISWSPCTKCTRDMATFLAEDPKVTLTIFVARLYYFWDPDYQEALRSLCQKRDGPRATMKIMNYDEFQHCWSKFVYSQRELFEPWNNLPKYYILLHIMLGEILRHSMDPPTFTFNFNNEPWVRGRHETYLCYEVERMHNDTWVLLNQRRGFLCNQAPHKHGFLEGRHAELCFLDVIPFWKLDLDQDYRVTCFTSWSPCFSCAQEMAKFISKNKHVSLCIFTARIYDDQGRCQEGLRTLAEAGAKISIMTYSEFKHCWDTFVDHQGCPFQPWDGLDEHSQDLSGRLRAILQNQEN

[8] = molecular target: Alkaline phosphatase, placental type (Homo sapiens, UniProt P05187); test: human placental alkaline phosphatase inhibition – biochemical, luminescence, confirmation (AID 1512); assay type: functional
Chain of Alkaline phosphatase, placental type (P05187 whole entry): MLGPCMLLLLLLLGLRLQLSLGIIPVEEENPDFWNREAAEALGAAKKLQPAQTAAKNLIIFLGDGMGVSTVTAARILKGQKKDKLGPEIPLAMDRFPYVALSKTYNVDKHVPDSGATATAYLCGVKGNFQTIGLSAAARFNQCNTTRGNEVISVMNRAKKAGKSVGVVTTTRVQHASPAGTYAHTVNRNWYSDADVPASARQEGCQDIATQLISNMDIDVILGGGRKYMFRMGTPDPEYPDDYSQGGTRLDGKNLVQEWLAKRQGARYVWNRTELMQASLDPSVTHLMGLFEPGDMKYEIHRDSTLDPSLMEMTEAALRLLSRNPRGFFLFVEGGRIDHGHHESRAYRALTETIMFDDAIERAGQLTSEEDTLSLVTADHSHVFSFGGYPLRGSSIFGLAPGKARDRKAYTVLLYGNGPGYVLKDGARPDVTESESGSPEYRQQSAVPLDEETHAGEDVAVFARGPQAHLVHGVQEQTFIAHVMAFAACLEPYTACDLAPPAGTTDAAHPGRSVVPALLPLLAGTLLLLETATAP

[9] = molecular target: T2, Alkaline phosphatase, tissue-nonspecific isozyme (Homo sapiens, UniProt P05186); test: potency against alkaline phosphatase TNAP – biochemical, luminescent, dose response, SAR follow-up (AID 1056)
T2 sequence (P05186 whole entry): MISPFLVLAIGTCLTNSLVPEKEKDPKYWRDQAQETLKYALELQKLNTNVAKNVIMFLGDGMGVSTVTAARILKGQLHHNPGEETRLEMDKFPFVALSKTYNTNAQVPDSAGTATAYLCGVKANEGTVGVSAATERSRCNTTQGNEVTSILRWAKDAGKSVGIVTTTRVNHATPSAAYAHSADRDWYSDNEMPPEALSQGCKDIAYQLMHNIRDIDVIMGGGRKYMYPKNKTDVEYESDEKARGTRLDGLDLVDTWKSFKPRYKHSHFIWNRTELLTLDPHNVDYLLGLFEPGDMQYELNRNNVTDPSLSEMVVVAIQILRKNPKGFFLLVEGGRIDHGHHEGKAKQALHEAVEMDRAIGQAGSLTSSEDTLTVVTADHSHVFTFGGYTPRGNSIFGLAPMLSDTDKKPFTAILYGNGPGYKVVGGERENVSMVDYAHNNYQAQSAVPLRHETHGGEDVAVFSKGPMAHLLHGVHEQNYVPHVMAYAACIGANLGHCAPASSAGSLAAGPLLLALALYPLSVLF

[10] = molecular target: T3, Zinc finger protein mex-5 (Caenorhabditis elegans, UniProt Q9XUB2); test: potency of MEX-5 RNA-binding blockers – biochemical, C. elegans, fluorescence polarization, dose response (AID 1960)
T3 sequence (Q9XUB2 whole entry): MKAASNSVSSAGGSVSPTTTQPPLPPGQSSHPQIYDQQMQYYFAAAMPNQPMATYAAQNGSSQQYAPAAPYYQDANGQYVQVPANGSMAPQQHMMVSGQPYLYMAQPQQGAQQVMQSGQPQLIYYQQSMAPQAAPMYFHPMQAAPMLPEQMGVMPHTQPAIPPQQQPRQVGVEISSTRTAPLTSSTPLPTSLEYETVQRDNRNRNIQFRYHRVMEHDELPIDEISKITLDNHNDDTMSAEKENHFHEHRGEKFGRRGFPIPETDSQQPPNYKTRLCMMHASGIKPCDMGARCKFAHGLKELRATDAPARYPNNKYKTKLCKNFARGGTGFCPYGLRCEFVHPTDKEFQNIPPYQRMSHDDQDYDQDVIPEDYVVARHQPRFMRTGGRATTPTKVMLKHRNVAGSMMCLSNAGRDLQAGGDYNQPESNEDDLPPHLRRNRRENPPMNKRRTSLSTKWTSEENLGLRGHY

[11] = molecular target: Glucose-6-phosphate 1-dehydrogenase (Homo sapiens, UniProt P11413); test: inhibition of Homo sapiens G6PD, dose series – biochemical, fluorescence, selectivity assay for P. falciparum G6PD inhibitor project, dose response (AID 504792); assay type: functional
Chain of Glucose-6-phosphate 1-dehydrogenase (P11413 whole entry, the tested form may be a part): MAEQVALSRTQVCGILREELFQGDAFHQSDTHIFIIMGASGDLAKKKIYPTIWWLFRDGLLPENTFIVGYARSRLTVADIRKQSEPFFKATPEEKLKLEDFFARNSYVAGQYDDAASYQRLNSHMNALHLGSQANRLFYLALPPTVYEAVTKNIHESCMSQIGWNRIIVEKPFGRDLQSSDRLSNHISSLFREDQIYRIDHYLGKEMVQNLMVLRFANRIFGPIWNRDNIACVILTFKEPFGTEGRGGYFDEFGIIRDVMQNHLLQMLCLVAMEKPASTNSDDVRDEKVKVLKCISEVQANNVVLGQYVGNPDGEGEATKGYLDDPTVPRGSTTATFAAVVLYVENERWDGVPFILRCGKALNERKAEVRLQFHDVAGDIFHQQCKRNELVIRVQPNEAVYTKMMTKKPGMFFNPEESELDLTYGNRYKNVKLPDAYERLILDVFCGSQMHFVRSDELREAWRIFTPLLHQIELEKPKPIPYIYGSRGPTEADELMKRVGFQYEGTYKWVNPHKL

[12] = molecular target: T4, RNA-binding protein pos-1 (Caenorhabditis elegans, UniProt G5EF15); test: disruptors of C. elegans POS-1 RNA interaction – biochemical, fluorescence polarization, dose response (AID 1964);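 also: purified POS-1 fused to maltose binding protein made in E. coli; potency of compounds blocking POS-1 binding to fluorescent RNA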
T4 sequence (G5EF15 whole entry): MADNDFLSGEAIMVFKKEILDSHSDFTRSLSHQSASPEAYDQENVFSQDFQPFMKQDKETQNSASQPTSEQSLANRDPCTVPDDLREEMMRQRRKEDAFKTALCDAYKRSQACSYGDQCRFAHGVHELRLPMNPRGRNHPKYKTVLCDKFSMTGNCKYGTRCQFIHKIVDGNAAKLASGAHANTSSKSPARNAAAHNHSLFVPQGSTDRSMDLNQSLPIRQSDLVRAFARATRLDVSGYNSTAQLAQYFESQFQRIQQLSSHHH

[13] = molecular target: T5, Rac GTPase-activating protein 1 (Homo sapiens, UniProt Q9H0H5); test: blockers of MgcRacGAP-driven Rac1 GTP hydrolysis – biochemical, ADP Hunter fluorescence, primary and confirmatory, confirmation (AID 624330); assay type: functional
T5 sequence (Q9H0H5 whole entry): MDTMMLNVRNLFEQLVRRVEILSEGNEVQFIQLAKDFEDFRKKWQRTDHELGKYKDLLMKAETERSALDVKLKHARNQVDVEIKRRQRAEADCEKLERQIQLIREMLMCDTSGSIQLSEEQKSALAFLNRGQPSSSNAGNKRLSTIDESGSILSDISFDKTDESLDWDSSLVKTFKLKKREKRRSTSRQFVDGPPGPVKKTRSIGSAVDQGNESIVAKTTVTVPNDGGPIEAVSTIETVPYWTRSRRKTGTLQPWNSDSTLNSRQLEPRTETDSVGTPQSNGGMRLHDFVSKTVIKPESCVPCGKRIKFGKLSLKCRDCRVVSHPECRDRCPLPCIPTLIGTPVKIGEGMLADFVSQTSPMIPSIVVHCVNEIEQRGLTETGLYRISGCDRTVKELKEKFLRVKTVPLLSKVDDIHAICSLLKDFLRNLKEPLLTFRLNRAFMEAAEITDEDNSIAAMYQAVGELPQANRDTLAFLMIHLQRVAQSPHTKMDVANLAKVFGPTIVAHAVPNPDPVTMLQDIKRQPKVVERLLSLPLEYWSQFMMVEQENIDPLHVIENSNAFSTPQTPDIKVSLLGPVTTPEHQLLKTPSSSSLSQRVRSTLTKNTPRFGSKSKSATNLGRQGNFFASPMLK

[14] = molecular target: FAD-linked sulfhydryl oxidase ALR (Homo sapiens, UniProt P55789); test: ALR-catalysed DTT oxidation blockers – biochemical, H2O2 detection, luminescence, cherry-pick, dose response (AID 493248)
Chain of FAD-linked sulfhydryl oxidase ALR (P55789 whole entry): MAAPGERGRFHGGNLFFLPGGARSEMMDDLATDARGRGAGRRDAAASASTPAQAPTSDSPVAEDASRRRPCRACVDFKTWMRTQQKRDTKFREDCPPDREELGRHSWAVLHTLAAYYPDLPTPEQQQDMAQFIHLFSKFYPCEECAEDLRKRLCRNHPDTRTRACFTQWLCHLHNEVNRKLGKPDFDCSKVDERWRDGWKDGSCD

Cytochrome P450 2C9 = Cytochrome P450 2C9 (Homo sapiens, UniProt P11712)
Chain of Cytochrome P450 2C9 (P11712 whole entry): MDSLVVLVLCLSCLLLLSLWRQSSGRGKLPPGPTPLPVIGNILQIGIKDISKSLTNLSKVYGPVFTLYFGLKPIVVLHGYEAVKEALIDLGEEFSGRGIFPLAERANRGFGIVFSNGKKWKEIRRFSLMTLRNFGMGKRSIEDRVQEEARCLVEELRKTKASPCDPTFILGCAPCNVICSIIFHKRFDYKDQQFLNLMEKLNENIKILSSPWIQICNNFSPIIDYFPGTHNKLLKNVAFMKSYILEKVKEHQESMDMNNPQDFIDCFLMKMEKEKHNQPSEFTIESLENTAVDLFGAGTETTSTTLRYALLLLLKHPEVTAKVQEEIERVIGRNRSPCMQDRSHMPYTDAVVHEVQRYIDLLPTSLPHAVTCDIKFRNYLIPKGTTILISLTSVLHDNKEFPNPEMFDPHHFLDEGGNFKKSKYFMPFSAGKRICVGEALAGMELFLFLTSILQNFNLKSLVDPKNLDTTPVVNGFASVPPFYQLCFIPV

Cytochrome P450 3A4 = Cytochrome P450 3A4 (Homo sapiens, UniProt P08684);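 also: CYP3A4 tested as one member of a cytochrome P450 panel screen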
Chain of Cytochrome P450 3A4 (P08684 whole entry): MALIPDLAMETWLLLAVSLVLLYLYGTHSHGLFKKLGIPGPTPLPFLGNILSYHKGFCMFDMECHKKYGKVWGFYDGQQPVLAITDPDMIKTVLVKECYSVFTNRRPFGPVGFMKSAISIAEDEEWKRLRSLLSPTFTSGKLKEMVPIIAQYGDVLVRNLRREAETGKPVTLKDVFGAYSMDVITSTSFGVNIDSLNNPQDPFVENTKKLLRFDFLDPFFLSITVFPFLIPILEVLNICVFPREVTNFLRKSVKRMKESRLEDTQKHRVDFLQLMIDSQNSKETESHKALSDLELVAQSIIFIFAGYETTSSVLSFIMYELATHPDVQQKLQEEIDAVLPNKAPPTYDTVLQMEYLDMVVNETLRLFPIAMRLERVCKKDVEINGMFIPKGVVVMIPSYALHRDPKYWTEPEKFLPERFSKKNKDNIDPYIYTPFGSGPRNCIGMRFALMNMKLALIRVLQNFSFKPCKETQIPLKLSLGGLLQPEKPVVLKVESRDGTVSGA

[15] = viability of uninfected HEp-2 cells – cell-based, HTS, cytotoxicity control for RSV inhibitor project, dose response (AID 2410); assay type: functional; conditions: human respiratory syncytial virus

SMILES: COc1ccc2nc(NC(=O)C3CCN(S(=O)(=O)c4cccc5nsnc45)CC3)sc2c1
- AC50 [1]: 1.9 µM (active)
- AC50 [2]: > 70 µM (inactive)
- AC50 (Cytochrome P450 2D6): inconclusive
- AC50 [3]: 4 µM (active)
- AC50 [4]: 65.4 µM (active)
- AC50 [5]: 41.8 µM (active)
- AC50 (Cytochrome P450 1A2): 3.16 µM (inconclusive)

SMILES: CC(C)Nc1oc(-c2cccc3ccccc23)nc1C#N
- AC50 (HeLa): 76.7 µM (active)

SMILES: O=C(NCc1ccc2c(c1)OCO2)c1cc(-n2cnnc2)ccc1Cl
- IC50 [6]: 1.64 µM (active)
- IC50 [7]: 2.44 µM (active)

SMILES: Cc1cccc(C(=O)Nc2sc3c(c2C#N)CCCCC3)c1
- AC50 (HeLa): 42.1 µM (active)

- IC50 [8]: 5.59 µM (active)
- IC50 [9]: 17.8 µM (active)
SMILES: C=CCn1c(SCC(=O)c2ccc(O)c(O)c2)nnc1-c1cccc(C)c1

SMILES: CC1N(C)c2cccc3cccc(c23)N1C
- EC50 [10]: > 300 µM (inconclusive)
- IC50 [11]: > 80 µM (inactive)
- EC50 [12]: > 300 µM (not active)
- IC50 [13]: 25 µM (active)

- AC50 [14]: 4.4 µM (active)
- IC50 [8]: 2.37 µM (active)
- IC50 [9]: 59.6 µM (active)
SMILES: Cc1nccn1CC(=O)c1ccc(O)c(O)c1

SMILES: O=C(OCC(=O)c1ccc([N+](=O)[O-])cc1)/C(=C\c1ccc(Cl)cc1)NC(=O)c1ccccc1
- IC50 [11]: > 80 µM (inactive)
- AC50 (Cytochrome P450 2C9): 0.0355 µM (inconclusive)
- AC50 (Cytochrome P450 3A4): 22.4 µM (inconclusive)

- IC50 [8]: 44.4 µM (active)
- IC50 [9]: > 100 µM (inactive)
SMILES: O=C(NCCc1ccc(O)c(O)c1)C1CCCO1 (stereo not drawn)

- IC50 [8]: > 100 µM (inactive)
- IC50 [9]: 0.23 µM (active)
SMILES: Cc1cc(O)oc2nnc(-c3ccccc3)c1-2
- CC50 [15]: 34.3 µM (active)

— ChEMBL document CHEMBL1201862, “PubChem BioAssay data set” (2004)
